For one data set, the target named is Baf3/T315I (Homo sapiens, UniProt P00519, T315I, cells depend on it). Kind of data set: MTT cell proliferation assay, Baf3/T315I. The data set is classed as cell-based. As to conditions: read-out: IC50 values obtained from MTT assay. On the procedure:
(§1) All the experimental compounds were evaluated for in vitro efficacy employing standard cell lines used for the screening of anti-cancer compounds.
(§2) In Vitro Studies of NRC-21T on BCR-abl Positive Cell Line K562 and Mutant Cell Lines Baf3/T315i, M351T, E255K and WT.
(§3) The stock solution was further diluted with the same cell culture medium and used in concentrations of 0.1 nm to 10 μm. Cell proliferation by MTT assay was done as follows. 1000 to 10,000 cells were seeded per well in 96-well plate and different concentrations of […] ranging from 10 μm to 0.1 nM were added in triplicates. After incubating the cells with NRC-21T for the required time period 24-72 hrs, 15 μl of 5 mg/ml MTT was added and incubated for additional 4 hours at 37° C. and 5% CO2. After 4 hrs, formazan crystals were dissolved in solubilizing buffer overnight at 37° C. Absorbance was measured on Elisa reader at dual wavelength of 570-630-nm. By MTT assay the IC50 values of the NRC21T were computed. […] (FIG. 3)

The subject of data set [1] is BCR-abl positive cell line K562. In words: MTT cell proliferation assay, K562. The data set is classed as cell-based. As to conditions: Homo sapiens, read-out: IC50 values obtained from MTT assay. On the procedure: as §1, §2, §3
For orientation: Tetrazolium dyes change colour on reduction, which living cells bring about.

For another data set, the target named is Baf3/WT (Homo sapiens, UniProt P00519). In words: MTT cell proliferation assay, Baf3/WT. The data set is classed as cell-based. The settings on record: Table 1A, 24-72 hrs incubation, read-out: IC50 values obtained from MTT assay. On the procedure:
as §1, §2, §3

The next data set deals with Baf3/M351T (Homo sapiens, UniProt P00519, M351T, cells depend on it). In words: MTT cell proliferation assay, Baf3/M351T. The data set is classed as cell-based. The settings on record: Table 1A, 24-72 hrs incubation, read-out: IC50 values obtained from MTT assay. On the procedure:
as §1, §2, §3

A further data set deals with T315I cell Line. Kind of data set: Survival time in SCID Mice injected with T315I cell line. Type of data set: in vivo. As to conditions: T315I cells i.v., 30 days dosing, NRC21T 200 mg/kg p.o, Ponatinib 10 mg/kg p.o.
The next data set deals with Baf3/E255K (Homo sapiens, UniProt P00519, E255K, cells depend on it). In words: MTT cell proliferation assay, Baf3/E255K. As to conditions: Table 1A, 24-72 hrs incubation, read-out: IC50 values obtained from MTT assay. The data set is classed as cell-based. On the procedure: as §1, §2, §3
Data set [2] relates to BaF3/T315i mutant Leukemia cancer cells. In words: Matrigel invasion assay. Type of data set: cell-based. The settings on record: matrigel transwell, 72 hrs, specified concentration.
Protocol: T315i cells (3×10^5) were suspended in 300 μl of serum-free medium and placed in the upper compartment of transwell chambers pre-coated with the matrigel (Millipore, Catalog No. ECM550, USA). The lower compartment of the chamber was filled with 500 μl serum-medium (10% FBS) and the cells were allowed to migrate for 72 hrs. After incubation, the cells were fixed and stained with the dye provided along with the kit and quantified using Elisa plate reader at 560 nm.
The next data set can be described thus: in vivo. As to conditions: both, Swiss Albino, mouse.
The subject of the next data set is T315I induced tumour. In words: Antagonism in T315I induced tumour in Nude Mice. Type of data set: in vivo. As to conditions: for Tumour volume after treatment (Mean ± SEM): daily oral, NRC21T 200 mg/kg, Ponatinib 50 mg/kg. On the procedure: The study was carried out with 18 Nude Mice (9 Male+9 Female).
The cell line was inoculated into Nude Mice subcutaneously to the right hind limb flank at a strength of 1×10^6 cells/0.2 ml. Animals were observed daily for the appearance of tumour. The tumour volume was measured using the formula ½ l×w^2 (l=length of tumour & w=width of tumour). When the mean tumour volume was recorded above 400 mm^3, the treatment with the above drugs was started. The above drugs were administered orally daily for 30 days. Weights of Nude Mice were taken daily before dosing and tumour measurements were done on alternative days using digital Vernier caliper. Surviving animals were sacrificed after the dosing was complete for 30 days and the organs (tumour with skin and spleen) were collected.

Read-outs that look alike come from different tables or passages of the source. Some results are limits rather than exact numbers.

What is called IC50 is the point on the concentration scale where inhibition reaches its midpoint. Turning to `Cc1ccc(NC(=O)c2ccc(CN3CCN(C)CC3)c(C(F)(F)F)c2)cc1C#Cc1cnc2[nH]c(=O)ccc2c1` [NRC-19T, N-[4-Methyl-3-[2-(7-oxo-8H-1,8-naphthyridin-3-yl)ethynyl]phenyl]-4-[(4-methylpiperazin-1-yl)methyl]-3-(trifluoromethyl)benzamide], the GI50 on Baf3/T315I (Table 1B, T315I) was found to be 0.334 µM. Further, the IC50 in data set [1] (Table 1B) is 0.007 µM.

Take `Cc1ccc(C(=O)Nc2cc(C(F)(F)F)cc(C(F)(F)F)c2)cc1C#Cc1cnc2[nH]c(=O)ccc2c1` [NRC-16T, N-[3,5-Bis(trifluoromethyl)phenyl]-4-methyl-3-[2-(7-oxo-8H-1,8-naphthyridin-3-yl)ethynyl]benzamide]: the GI50 on Baf3/T315I (Table 1B, T315I) was more than 10 µM.

Turning to `Cc1ccc(NC(=O)c2cccc(C(F)(F)F)c2)cc1C#Cc1cnc2[nH]c(=O)ccc2c1` [NRC-13T, N-[4-Methyl-3-[2-(7-oxo-8H-1,8-naphthyridin-3-yl)ethynyl]phenyl]-3-(trifluoromethyl)benzamide], the GI50 at Baf3/T315I (Table 1B, T315I) came out at 1.51 µM. Besides, the IC50 in data set [1] (Table 1B) turned out to be 0.009 µM.

As to `Cc1ccc(NC(=O)c2cc(C(F)(F)F)cc(C(F)(F)F)c2)cc1C#Cc1cnc2[nH]c(=O)ccc2c1` [NRC-15T, N-[4-Methyl-3-[2-(7-oxo-8H-1,8-naphthyridin-3-yl)ethynyl]phenyl]-3,5-Bis(trifluoromethyl)benzamide], the GI50 at Baf3/T315I (Table 1B, T315I) worked out at 7.69 µM. Further, the half-inhibitory concentration (IC50) in data set [1] (Table 1B) turned out to be 0.02 µM.

With `Cc1ccc(C(=O)Nc2cccc(C(F)(F)F)c2)cc1C#Cc1cnc2[nH]c(=O)ccc2c1` [NRC-14T, 4-Methyl-3-[2-(7-oxo-8H-1,8-naphthyridin-3-yl)ethynyl]-N-[3-(trifluoromethyl)phenyl]benzamide], the GI50 at Baf3/T315I (Table 1B, T315I) worked out at 1.04 µM. In [1] (Table 1B), the IC50 was determined as 0.008 µM.

In the case of `Cc1ccc(C(=O)Nc2ccc(CN3CCN(C)CC3)c(C(F)(F)F)c2)cc1/C=C/c1cnc2[nH]c(=O)ccc2c1` [NRC-20T, 4-Methyl-N-[4-[(4-methylpiperazin-1-yl)methyl]-3-(trifluoromethyl)phenyl]-3-[(E)-2-(7-oxo-8H-1,8-naphthyridin-3-yl)vinyl]benzamide], the GI50 on Baf3/T315I (Table 1B, T315I) worked out at 0.155 µM. The IC50 in [1] (Table 1B) was 0.033 µM.

With `Cc1ccc(C(=O)Nc2ccc(CN3CCN(C)CC3)c(C(F)(F)F)c2)cc1C#Cc1cnc2[nH]c(=O)ccc2c1` [NRC21T, 4-Methyl-N-[4-[(4-methylpiperazin-1-yl)methyl]-3-(trifluoromethyl)phenyl]-3-[2-(7-oxo-8H-1,8-naphthyridin-3-yl)ethynyl]benzamide], the GI50 amounted to 0.014 µM on Baf3/T315I (Table 1A, Baf3/T315I, 24-72 hrs incubation); 0.011 µM on Baf3/WT; 0.002 µM on Baf3/M351T; 0.016 µM on Baf3/E255K. In the data set with T315I cell Line, the “Mean Survival Time (Mean ± SEM)” value amounted to 36 ± 0 days. Moreover, in [2], the “Percentage of Anti-invasion property” value is given as 28%. This compound also came in with an MTD at 14 days in the data set “in vivo” of more than 2000 mg/kg. Further, the IC50 in data set [1] (Table 1A, 24-72 hrs incubation) amounted to 0.007 µM. Besides, the “Tumour volume after treatment (Mean ± SEM)” value was 721.18 ± 141.41 mm^3 in the data set on T315I induced tumour (3rd Day); 183.97 ± 8.66 mm^3 in the data set on T315I induced tumour (5th Day); 106.59 ± 11.90 mm^3 with T315I induced tumour (7th Day); 83.21 ± 8.83 mm^3 with T315I induced tumour (9th Day); 48.88 ± 4.36 mm^3 in the data set on T315I induced tumour (11th Day); 10.61 ± 2.3 mm^3 in the data set with T315I induced tumour (13th Day). Also, the “Initial tumour volume (Mean ± SEM)” value with T315I induced tumour (before treatment, NRC21T 200 mg/kg p.o, Ponatinib 50 mg/kg p.o groups) was 921.35 ± 176.32 mm^3.

Take `Cc1ccc(C(=O)Nc2cc(CN3CCN(C)CC3)cc(C(F)(F)F)c2)cc1C#Cc1cnc2[nH]c(=O)ccc2c1` [NRC-17T, 4-Methyl-N-[3-[(4-methylpiperazin-1-yl)methyl]-5-(trifluoromethyl)phenyl]-3-[2-(7-oxo-8H-1,8-naphthyridin-3-yl)ethynyl]benzamide]: the GI50 at Baf3/T315I (Table 1B, T315I) is 0.712 µM. The IC50 in data set [1] (Table 1B) turned out to be 0.021 µM.

Regarding `Cc1ccc(C(=O)Nc2ccc(CN3CCN(C)CC3)c(C(F)(F)F)c2)cc1C#Cc1cnc2cccnn12` [Ponatinib, reference compound], the “Mean Survival Time (Mean ± SEM)” value in the data set on T315I cell Line is reported as 36 ± 0 days. The “Percentage of Anti-invasion property” value in [2] stood at 12%.

On to `Cc1cn(-c2cc(NC(=O)c3ccc(C)c(C#Cc4cnc5[nH]c(=O)ccc5c4)c3)cc(C(F)(F)F)c2)cn1` [NRC-18T, 4-Methyl-N-[3-(4-methylimidazol-1-yl)-5-(trifluoromethyl)phenyl]-3-[2-(7-oxo-8H-1,8-naphthyridin-3-yl)ethynyl]benzamide], for which the GI50 at Baf3/T315I (Table 1B, T315I) amounted to 0.228 µM.

Source of the values: US10047088B2, “1H-1,8-naphthyridin-2-ones as anti proliferative compounds” (NATCO PHARMA LIMITED, priority 2014, dated 2018).
